Test results taken from publication PMC11603219, “Novel Dibenzoazepine-Substituted Triazole Hybrids as Cholinesterase and Carbonic Anhydrase Inhibitors and Anticancer Agents: Synthesis, Characterization, Biological Evaluation, and In Silico Studies” (ACS Omega, 2024).

Experiments:
hCA I = hCA I (Homo sapiens, UniProt P00915); assay: biochemical; type: biochemical
hCA II = hCA II (Homo sapiens, UniProt P00918); assay: biochemical; type: biochemical
AChE = AChE (Homo sapiens, UniProt P22303); assay: biochemical; type: biochemical
Chain of AChE (P22303 32-614): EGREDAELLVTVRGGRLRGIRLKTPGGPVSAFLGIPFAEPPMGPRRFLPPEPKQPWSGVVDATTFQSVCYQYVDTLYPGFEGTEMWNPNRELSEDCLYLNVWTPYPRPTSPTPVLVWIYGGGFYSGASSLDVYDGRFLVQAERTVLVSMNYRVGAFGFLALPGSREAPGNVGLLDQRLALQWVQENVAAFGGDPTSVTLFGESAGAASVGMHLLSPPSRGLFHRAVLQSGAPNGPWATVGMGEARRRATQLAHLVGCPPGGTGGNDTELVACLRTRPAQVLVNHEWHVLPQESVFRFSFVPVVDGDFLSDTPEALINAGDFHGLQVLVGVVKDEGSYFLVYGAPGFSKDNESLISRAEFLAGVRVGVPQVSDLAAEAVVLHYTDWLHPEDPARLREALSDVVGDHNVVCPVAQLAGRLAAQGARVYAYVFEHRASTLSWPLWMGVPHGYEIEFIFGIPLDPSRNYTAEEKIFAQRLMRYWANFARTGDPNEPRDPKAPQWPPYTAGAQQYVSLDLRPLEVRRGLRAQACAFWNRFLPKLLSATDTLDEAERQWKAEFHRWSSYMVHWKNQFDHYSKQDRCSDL

BChE from equine serum = target: T1, BChE from equine serum (Equus caballus, UniProt P81908); assay: biochemical; type: biochemical
T1 construct: from tissue; host or cells: equine serum
T1 sequence (P81908 whole entry): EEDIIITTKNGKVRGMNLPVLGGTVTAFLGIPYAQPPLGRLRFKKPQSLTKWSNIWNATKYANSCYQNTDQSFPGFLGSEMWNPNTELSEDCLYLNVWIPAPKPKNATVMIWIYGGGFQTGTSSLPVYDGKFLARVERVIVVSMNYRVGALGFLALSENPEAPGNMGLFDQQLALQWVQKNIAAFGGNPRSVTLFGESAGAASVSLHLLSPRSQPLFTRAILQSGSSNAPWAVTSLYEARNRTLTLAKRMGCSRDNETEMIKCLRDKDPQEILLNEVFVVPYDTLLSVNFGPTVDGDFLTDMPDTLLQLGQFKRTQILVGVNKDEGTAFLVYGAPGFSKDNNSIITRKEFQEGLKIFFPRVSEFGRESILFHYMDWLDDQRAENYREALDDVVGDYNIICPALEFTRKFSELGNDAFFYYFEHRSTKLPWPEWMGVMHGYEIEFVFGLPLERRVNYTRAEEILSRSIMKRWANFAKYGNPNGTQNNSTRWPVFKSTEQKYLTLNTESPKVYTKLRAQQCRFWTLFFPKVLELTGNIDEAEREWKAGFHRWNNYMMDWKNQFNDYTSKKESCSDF
Protocol: All of the measurements were repeated thrice. AChE and BChE activity were assessed using a modified version of the Ellman method.[48] The measurement of AChE/BChE activity was conducted with acetylthiocholine iodide/butyrylthiocholine iodide as substrates along with 5,5-dithiobis (2-nitrobenzoic) acid.

BT-549 cells [1] = assay: MTT cytotoxicity assay, BT-549; type: cell-based, human; conditions: 96 h treatment
MDA-MB-231 cells = assay: MTT cytotoxicity assay, MDA-MB-231; type: cell-based; conditions: Homo sapiens, 72 h treatment
BT-549 cells [2] = assay: Colony formation inhibition assay; type: cell-based, human; conditions: for colony formation inhibition: 10 μM, 20 μM, and 30 μM, 7–10 days
[3] = ratio of Ki versus tacrine (TAC/THA)

Chain of hCA I (P00915 whole entry): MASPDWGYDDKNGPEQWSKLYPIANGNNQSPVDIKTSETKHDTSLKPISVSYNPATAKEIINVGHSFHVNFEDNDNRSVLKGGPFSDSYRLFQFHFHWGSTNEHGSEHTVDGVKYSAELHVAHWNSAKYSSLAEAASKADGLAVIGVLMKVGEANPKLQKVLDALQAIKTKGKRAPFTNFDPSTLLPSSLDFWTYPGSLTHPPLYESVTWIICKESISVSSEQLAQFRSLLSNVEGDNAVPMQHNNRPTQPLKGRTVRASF

Q: C1=Cc2ccccc2N(Cc2cn(Cc3ccccc3)nn2)c2ccccc21 [Compound 12, 5-((1-Benzyl-1H-1,2,3-triazol-4-yl)methyl)-5H-dibenzo[b,f]azepine] was tested. Which Ki (hCA I) did it give?
A: 48.8 ± 4.68 nM

Q: What about the Ki (hCA II) of the same molecule?
A: 40.5 ± 5.85 nM

Q: And the Ki (AChE)?
A: 28.9 ± 3.52 nM

Q: And the Ki (BChE from equine serum)?
A: 48.8 ± 8.62 nM

Q: What about the IC50 (BT-549 cells [1]; Homo sapiens, BT-549, 96 h) of the same molecule?
A: 33500 ± 3030 nM

Q: What about the IC50 (MDA-MB-231 cells) of the same molecule?
A: 12500 ± 1920 nM

Q: What does the source list for C1=Cc2ccccc2N(Cc2cn(-c3cccc4ccccc34)nn2)c2ccccc21 [Compound 13, 5-((1-(Naphthalen-1-yl)–1H-1,2,3-triazol-4-yl)methyl)-5H-dibenzo[b,f]azepine]?
A: Ki (hCA I): 62.1 ± 8.53 nM; Ki (hCA II): 28.8 ± 4.64 nM; Ki (AChE): 14.1 ± 3.81 nM; fold more active than tacrine for AChE (AChE; [3]): 5.49 fold; Ki (BChE from equine serum): 1.15 ± 0.15 nM; times more inhibition effect than compound 12, BChE (BChE from equine serum; ratio of Ki versus compound 12): approximately 42.48 times; fold more active than tacrine for BChE (BChE from equine serum; [3]): 49.70 fold; times more inhibition effect, BChE, compound 18 comparison (BChE from equine serum; ratio of Ki, compound 13 and compound 18): 34.04 times; IC50 (BT-549 cells [1]; Homo sapiens, BT-549, 96 h): > 40000 nM; IC50 (MDA-MB-231 cells): > 125000 nM

Q: Which results are given for C1=Cc2ccccc2N(Cc2cn(-c3cccnc3)nn2)c2ccccc21 [Compound 14, 5-((1-(Pyridin-3-yl)-1H-1,2,3-triazol-4-yl)methyl)-5H-dibenzo[b,f]azepine]?
A: Ki (hCA I): 29.9 ± 5.93 nM; fold more active than acetazolamide for hCA I (hCA I; ratio of Ki versus AZA): 4.16 fold; Ki (hCA II): 17.7 ± 1.54 nM; fold more active than acetazolamide for hCA II (hCA II; ratio of Ki versus AZA): 5.79 fold; Ki (AChE): 21.2 ± 5.87 nM; Ki (BChE from equine serum): 7.65 ± 1.49 nM; IC50 (BT-549 cells [1]): 16600 ± 970 nM; IC50 (BT-549 cells [1]; Homo sapiens, BT-549, 96 h): ≤ 20000 nM; IC50 (MDA-MB-231 cells): > 75000 nM; concentration at which BT-549 colonies were inhibited/suppressed (BT-549 cells [2]): 10 µM; colony formation inhibition (BT-549 cells [2]): suppressed the colonies

Q: For COc1ccc(-n2cc(CN3c4ccccc4C=Cc4ccccc43)nn2)cc1 [Compound 15, 5-((1-(4-Methoxyphenyl)-1H-1,2,3-triazol-4-yl)methyl)-5H-dibenzo[b,f]azepine], which Ki (hCA I) is on record?
A: 54.7 ± 9.63 nM

Q: What about the Ki (hCA II) of the same molecule?
A: 39.1 ± 2.17 nM

Q: And the Ki (AChE)?
A: 24.1 ± 0.45 nM

Q: And the Ki (BChE from equine serum)?
A: 4.11 ± 0.46 nM

Q: What about the IC50 (BT-549 cells [1]; Homo sapiens, BT-549, 96 h) of the same molecule?
A: 26800 ± 4600 nM

Q: And the IC50 (MDA-MB-231 cells)?
A: > 150000 nM

Q: And the “concentration at which BT-549 colonies were inhibited/suppressed” value (BT-549 cells [2])?
A: 20 µM

Q: And the colony formation inhibition (BT-549 cells [2])?
A: suppressed the colonies

Q: Which Ki (hCA I) does the source give for O=c1ccc2ccc(OCCn3cc(CN4c5ccccc5C=Cc5ccccc54)nn3)cc2o1 [Compound 16, 7-(2-(4-((5H-Dibenzo[b,f]azepin-5-yl)methyl)-1H-1,2,3-triazol-1-yl)ethoxy)-2H-chromen-2-one] here?
A: 122 ± 20.2 nM

Q: And the Ki (hCA II)?
A: 54.6 ± 1.99 nM

Q: And the Ki (AChE)?
A: 17.5 ± 2.19 nM

Q: And the Ki (BChE from equine serum)?
A: 11.2 ± 1.55 nM

Q: And the IC50 (BT-549 cells [1])?
A: 17700 ± 2540 nM

Q: What about the IC50 (BT-549 cells [1]; Homo sapiens, BT-549, 96 h) of the same molecule?
A: ≤ 20000 nM

Q: What about the IC50 (MDA-MB-231 cells) of the same molecule?
A: > 150000 nM

Q: What about the colony formation inhibition (BT-549 cells [2]) of the same molecule?
A: suppressed the colonies

Q: NS(=O)(=O)c1ccc(-n2cc(CN3c4ccccc4C=Cc4ccccc43)nn2)cc1 [Compound 17, 4-(4-((5H-Dibenzo[b,f]azepin-5-yl)methyl)-1H-1,2,3-triazol-1-yl)benzenesulfonamide] was tested. Which Ki (hCA I) did it give?
A: 40.5 ± 11.1 nM

Q: And the Ki (hCA II)?
A: 56.7 ± 11.5 nM

Q: And the Ki (AChE)?
A: 19 ± 5.44 nM

Q: And the Ki (BChE from equine serum)?
A: 15.3 ± 1.12 nM

Q: And the IC50 (BT-549 cells [1])?
A: 17400 ± 3090 nM

Q: What about the IC50 (BT-549 cells [1]; Homo sapiens, BT-549, 96 h) of the same molecule?
A: ≤ 20000 nM

Q: What about the IC50 (MDA-MB-231 cells) of the same molecule?
A: 36500 ± 1620 nM

Q: What about the “concentration at which BT-549 colonies were inhibited/suppressed” value (BT-549 cells [2]) of the same molecule?
A: 20 µM

Q: And the colony formation inhibition (BT-549 cells [2])?
A: suppressed the colonies

Q: Which results are given for O=[N+]([O-])c1ccc(-n2cc(CN3c4ccccc4C=Cc4ccccc43)nn2)cc1 [Compound 18, 5-((1-(4-Nitrophenyl)-1H-1,2,3-triazol-4-yl)methyl)-5H-dibenzo[b,f]azepine]?
A: Ki (hCA I): 118 ± 21 nM; Ki (hCA II): 69.7 ± 5.93 nM; Ki (AChE): 44.7 ± 9.61 nM; Ki (BChE from equine serum): 39.1 ± 8.82 nM; IC50 (BT-549 cells [1]; Homo sapiens, BT-549, 96 h): > 40000 nM; IC50 (MDA-MB-231 cells): > 150000 nM

Q: Which Ki (hCA I) does the source give for COc1cc(-n2cc(CN3c4ccccc4C=Cc4ccccc43)nn2)cc(OC)c1OC [Compound 19, 5-((1-(3,4,5-Trimethoxyphenyl)-1H-1,2,3-triazol-4-yl)methyl)-5H-dibenzo[b,f]azepine] here?
A: 94 ± 15.5 nM

Q: And the Ki (hCA II)?
A: 61.4 ± 9.11 nM

Q: And the Ki (AChE)?
A: 34.5 ± 8.54 nM

Q: And the Ki (BChE from equine serum)?
A: 2.22 ± 0.17 nM

Q: What about the IC50 (BT-549 cells [1]) of the same molecule?
A: 18100 ± 2140 nM

Q: What about the IC50 (BT-549 cells [1]; Homo sapiens, BT-549, 96 h) of the same molecule?
A: ≤ 20000 nM

Q: What about the IC50 (MDA-MB-231 cells) of the same molecule?
A: > 150000 nM

Q: And the “concentration at which BT-549 colonies were inhibited/suppressed” value (BT-549 cells [2])?
A: 20 µM

Q: What about the colony formation inhibition (BT-549 cells [2]) of the same molecule?
A: suppressed the colonies

Q: Which results are given for Oc1ccccc1-n1cc(CN2c3ccccc3C=Cc3ccccc32)nn1 [Compound 20, 2-(4-((5H-Dibenzo[b,f]azepin-5-yl)methyl)-1H-1,2,3-triazol-1-yl)phenol]?
A: Ki (hCA I): 80.4 ± 15.6 nM; Ki (hCA II): 89.4 ± 4.92 nM; Ki (AChE): 22.8 ± 4.78 nM; Ki (BChE from equine serum): 16.2 ± 2.43 nM; IC50 (BT-549 cells [1]; Homo sapiens, BT-549, 96 h): 36200 ± 3770 nM; IC50 (MDA-MB-231 cells): > 100000 nM
